# Read-outs that look alike come from different tables or passages of the source.
# Experiment: Pharmacokinetics of rivaroxaban in rats after avitinib or gefitinib pretreatment
# Format: in vivo, Sprague–Dawley (SD) rats
# Settings: male, Sprague-Dawley, rat, plasma; for AUC(0-t): read-out: AUC(0-t); for CL/F: read-out: CLz/F (converted); for Cmax: read-out: Cmax; for MRT last: read-out: MRT(0-t); for half-life: read-out: t1/2z (converted); for k el: read-out: λz (converted); for MRT inf: read-out: MRT(0-∞)
# Description: Eighteen male Sprague–Dawley (SD) rats weighing 300 ± 20 g were provided by the Experimental Animal Center of Wenzhou Medical University (Wenzhou, China) and kept under controlled conditions at a temperature of 23 ± 2 °C, relative humidity of 50 ± 10%, and 12 h light–dark cycle. Eighteen male SD rats were randomly assigned to three groups: avitinib, gefitinib, and control, with six rats per group. Prior to the experiment, the rats were not administered any other medications and fasted for 12 h. The experimental procedures and protocols adhered to Animal Ethics standards and were approved by the Animal Care and Use Committee of Wenzhou Medical University (approval no. wydw2019–650). All rats were anesthetized with sodium pentobarbital (40mg/kg, i.p) to relieve pain. The rats were killed through cervical dislocation.
# Prior to the experiment in vivo, the six rats in the avitinib group were administered 30 mg/kg avitinib and 0.5% sodium carboxymethyl cellulose (CMC-Na) solution by gavage daily for 7 d. […] The supernatant was collected and stored at −80 °C. After thawing, 50 μL of plasma was extracted; 100 μL of acetonitrile solution containing midazolam (200 ng/mL) was then added to induce protein precipitation. After vortexing for 30 s and centrifuging at 13,000 rpm for 5 min, the […].
# All assays were performed in triplicate, and the results are expressed as mean ± standard deviation. DAS software v. […] SPSS v. 25.0 (IBM, NY, USA) was used for data processing. Student’s t-tests were used to detect differences between groups. Differences with p < 0.05 were considered statistically significant.
# [1] = po, 10 mg/kg, avitinib group, Mean
# [2] = po, 10 mg/kg, avitinib group, single rats No1-No6
# [3] = po, 10 mg/kg, gefitinib group, Mean
# [4] = po, 10 mg/kg, gefitinib group, single rats No1-No6
smiles,measurement,setting,value
"O=C(NC[C@H]1CN(c2ccc(N3CCOCC3=O)cc2)C(=O)O1)c1ccc(Cl)s1 [rivaroxaban, Rivaroxaban]",concentration at 12 h,"oral, rivaroxaban ng/ml mean, 吉非替尼 (gefitinib) group, mean of rats 7-12, time 12",1640 ng/mL
same,concentration at 24 h,"oral, rivaroxaban ng/ml mean, 艾维替尼 (avitinib) group, mean (one rat only), time 24",14.8 ng/mL
same,concentration at 5 min,"oral, rivaroxaban ng/ml mean, 艾维替尼 (avitinib) group, mean of rats 1-6, time 0.0833",284 ng/mL
same,concentration at 0.25 h,"oral, rivaroxaban ng/ml mean, 艾维替尼 (avitinib) group, mean of rats 1-6, time 0.25",588 ng/mL
same,concentration at 0.5 h,"oral, rivaroxaban ng/ml mean, 艾维替尼 (avitinib) group, mean of rats 1-6, time 0.5",1090 ng/mL
same,concentration at 1 h,"oral, rivaroxaban ng/ml mean, 艾维替尼 (avitinib) group, mean of rats 1-6, time 1",1730 ng/mL
same,concentration at 2 h,"oral, rivaroxaban ng/ml mean, 艾维替尼 (avitinib) group, mean of rats 1-6, time 2",1650 ng/mL
same,concentration at 3 h,"oral, rivaroxaban ng/ml mean, 艾维替尼 (avitinib) group, mean of rats 1-6, time 3",1390 ng/mL
same,concentration at 4 h,"oral, rivaroxaban ng/ml mean, 艾维替尼 (avitinib) group, mean of rats 1-6, time 4",1010 ng/mL
same,concentration at 6 h,"oral, rivaroxaban ng/ml mean, 艾维替尼 (avitinib) group, mean of rats 1-6, time 6",538 ng/mL
same,concentration at 8 h,"oral, rivaroxaban ng/ml mean, 艾维替尼 (avitinib) group, mean of rats 1-6, time 8",448 ng/mL
same,concentration at 12 h,"oral, rivaroxaban ng/ml mean, 艾维替尼 (avitinib) group, mean of rats 1-6, time 12",80.9 ng/mL
same,concentration at 0.25 h,"oral, rivaroxaban ng/ml, 吉非替尼 (gefitinib) group, individual rats 7-12, time 0.25",1690 ng/mL
same,concentration at 0.5 h,"oral, rivaroxaban ng/ml, 吉非替尼 (gefitinib) group, individual rats 7-12, time 0.5",3820 ng/mL
same,concentration at 1 h,"oral, rivaroxaban ng/ml, 吉非替尼 (gefitinib) group, individual rats 7-12, time 1",5910 ng/mL
same,concentration at 3 h,"oral, rivaroxaban ng/ml, 吉非替尼 (gefitinib) group, individual rats 7-12, time 3",9510 ng/mL
same,concentration at 4 h,"oral, rivaroxaban ng/ml, 吉非替尼 (gefitinib) group, individual rats 7-12, time 4",11300 ng/mL
same,concentration at 6 h,"oral, rivaroxaban ng/ml, 吉非替尼 (gefitinib) group, individual rats 7-12, time 6",3980 ng/mL
same,concentration at 8 h,"oral, rivaroxaban ng/ml, 吉非替尼 (gefitinib) group, individual rats 7-12, time 8",3270 ng/mL
same,concentration at 5 min,"oral, rivaroxaban ng/ml, 艾维替尼 (avitinib) group, individual rats 1-6, time 0.0833",237 ng/mL
same,concentration at 24 h,"oral, rivaroxaban ng/ml, 艾维替尼 (avitinib) group, individual rats 1-6, time 24",14.8 ng/mL
same,AUC(0-inf),[1],9350 ng·h/mL
same,Tmax,[1],1.33 h
same,AUC(0-t),[1],9000 ng·h/mL
same,CL/F,[1],19.7 mL/min/kg
same,Cmax,[1],1810 ng/mL
same,MRT last,[1],3.79 h
same,half-life,[1],2.2 h
same,k el,[1],0.000104 s⁻¹
same,Tmax,[2],1 h
same,MRT last,[2],3.83 h
same,MRT inf,[2],2.87 h
same,AUC(0-inf),[3],76000 ng·h/mL
same,Tmax,[3],3.17 h
same,AUC(0-t),[3],58000 ng·h/mL
same,CL/F,[3],2.32 mL/min/kg
same,Cmax,[3],8310 ng/mL
same,MRT last,[3],4.9 h
same,MRT inf,[3],8.23 h
same,Vd/F,"po, 10 mg/kg, gefitinib group, Mean, read-out: Vz/F",0.867 L/kg
same,half-life,[3],4.81 h
same,k el,[3],5.17e-05 s⁻¹
same,AUC(0-inf),[4],109000 ng·h/mL
same,AUC(0-t),[4],62400 ng·h/mL
same,CL/F,[4],1.53 mL/min/kg
same,Cmax,[4],6780 ng/mL

# — article PMC12133000 (PLOS One, 2025)
